pIC50: −log10 of the molar value. Where two headings read alike, the source gives them in different places.
Tests used:
Panc-1 cells = test: MTT tumor cell growth inhibition, Panc-1; format: cell-based; details: 48 h, read-out: Tumors growth-inhibitory activity (IC50) Panc-1
Experimental: (§1) Using MTT method to determine the growth inhibition activity of the matrine compounds on Lovo, MGC-803, Mia-paca2, HpeG-2, A549, k562, and Panc-1 cells in vitro. Logarithmic growth phase of Lovo, MGC-803, Mia-paca2, HpeG-2, A549, k562, Panc-1 cells were inoculated into 96-well plates (purchased from Institute of Biochemical Cells, Chinese Academy of Sciences, and cultured according to conventional tumor cell culture methods) at a density of 4×10^4/mL and 180 μL/well; after the cells adhered to the wall, 20 μL of drug solution was added to each well and matined the final drug concentrations were 0.1 μM, 1 μM, 10 μM, 50 μM, 100 μM respectively. After 48 h, 5 mg/mL MTT solution was added (20 μL/well) and maintained in a CO2 incubator for 3-4 h. After that, discarding the supernatant carefully, and DMSO was added (200 μL/well) when the residual liquid was air-dried, and shook for 0.5-1 h until the residual crystals was dissolved. The absorbance OD was measured at 492 nm by a microplate reader. GraphPad Prism 5 software was used to calculate the IC50 value.

k562 cells = test: MTT tumor cell growth inhibition, k562; format: cell-based; details: 48 h, read-out: Tumors growth-inhibitory activity (IC50) k562
Experimental: as §1

Mia-paca2 cells = test: MTT tumor cell growth inhibition, Mia-paca2; format: cell-based; details: read-out: Tumors growth-inhibitory activity (IC50) Mia-paca2
Experimental: as §1

A549 cells = test: MTT tumor cell growth inhibition, A549; format: cell-based; details: 48 h, read-out: Tumors growth-inhibitory activity (IC50) A549
Experimental: as §1

HpeG-2 cells = test: MTT tumor cell growth inhibition, HpeG-2; format: cell-based; details: 48 h, read-out: Tumors growth-inhibitory activity (IC50) HpeG-2
Experimental: as §1

MGC-803 cells = test: MTT tumor cell growth inhibition, MGC-803; format: cell-based; details: 48 h, read-out: Tumors growth-inhibitory activity (IC50) MGC-803
Experimental: as §1

Lovo cells = test: MTT tumor cell growth inhibition, Lovo; format: cell-based; details: 48 h, read-out: Tumors growth-inhibitory activity (IC50) Lovo
Experimental: as §1

TNF-α = TNF-α activity inhibiting assay (LPS-stimulated peripheral blood, ELISA); format: cell-based, human; details: compound 20 μM, LPS 10 ng/mL, 6 hours, diluted peripheral blood of healthy volunteers; for inhibition at 20 µM: Homo sapiens, read-out: TNF-α inhibition rate (%)
Experimental: Methods: Peripheral blood from healthy volunteers was collected with EDTA anticoagulant tubes. After being diluted 5-fold with 1640 medium (Gibco, USA), the blood was added to 96-well cell culture plates (Costar, USA) and then treated with 10 μL solution of the compound of general formula (I) of the present invention in DMSO (Sigma, USA), the final concentration of the compound was 20 μM with the final concentration of DMSO was 0.2%. After incubation for 60 minutes in an incubator at 37° C. under 5% CO2, 10 μL LPS (Sigma, USA) was added to the reaction system, and the final concentration was 10 ng/mL. After further culturing for 6 hours in the incubator at 37° C. under 5% CO2, the supernatant was collected. The content of TNF-α was determined by ELISA (BD Biosciences, USA). Absorbance was detected at OD450 nm with a microplate reader, with OD 650 nm as reference. The control, a solution containing 0.2% DMSO medium, was as 0% inhibition. Raw data and standard curves were recorded. The four-parameter drug inhibition curve was plotted by XL-fit software and the inhibition rate of each compound was calculated.

## NC1CC[C@@H]2[C@H]3CCCN4CCC[C@@H](CN2C1=O)[C@@H]34 (some centres unmarked) [Compound M-3, 14-amino-matrine]
Panc-1 cells; Homo sapiens
  pIC50: < 4.00
k562 cells; Homo sapiens
  pIC50: 4.00 to 4.30
Mia-paca2 cells; Homo sapiens, MIA PaCa-2, 48 h
  pIC50: < 4.00
A549 cells; Homo sapiens
  pIC50: 4.00 to 4.30
HpeG-2 cells
  pIC50: 4.00 to 4.30
MGC-803 cells; Homo sapiens
  pIC50: < 4.00
Lovo cells; Homo sapiens
  pIC50: 4.00 to 4.30

## O=C1c2cccc(F)c2C(=O)N1C1CC[C@@H]2[C@H]3CCCN4CCC[C@@H](CN2C1=O)[C@@H]34 (some centres unmarked) [GJD 03]
TNF-α
  inhibition at 20 µM: > 50%

## O=C1c2cccc(Cl)c2C(=O)N1C1CC[C@@H]2[C@H]3CCCN4CCC[C@@H](CN2C1=O)[C@@H]34 (some centres unmarked) [GJD 04]
TNF-α
  inhibition at 20 µM: > 50%

## O=C1c2cccc([N+](=O)[O-])c2C(=O)N1C1CC[C@@H]2[C@H]3CCCN4CCC[C@@H](CN2C1=O)[C@@H]34 (some centres unmarked) [GJD 05]
TNF-α
  inhibition at 20 µM: > 50%

## N#Cc1cccc2c1C(=O)N(C1CC[C@@H]3[C@H]4CCCN5CCC[C@@H](CN3C1=O)[C@@H]45)C2=O (some centres unmarked) [GJD 06]
Panc-1 cells; Homo sapiens
  pIC50: 4.00 to 4.30
k562 cells; Homo sapiens
  pIC50: 4.00 to 4.30
Mia-paca2 cells; Homo sapiens, MIA PaCa-2, 48 h
  pIC50: 4.00 to 4.30
A549 cells; Homo sapiens
  pIC50: 4.00 to 4.30
HpeG-2 cells
  pIC50: > 4.30
TNF-α
  inhibition at 20 µM: > 50%
MGC-803 cells; Homo sapiens
  pIC50: < 4.00
Lovo cells; Homo sapiens
  pIC50: 4.00 to 4.30

## Cc1cccc2c1C(=O)N(C1CC[C@@H]3[C@H]4CCCN5CCC[C@@H](CN3C1=O)[C@@H]45)C2=O (some centres unmarked) [GJD 08]
TNF-α
  inhibition at 20 µM: > 50%

## COc1cccc2c1C(=O)N(C1CC[C@@H]3[C@H]4CCCN5CCC[C@@H](CN3C1=O)[C@@H]45)C2=O (some centres unmarked) [GJD 09]
TNF-α
  inhibition at 20 µM: > 50%

## O=C1c2cccc(O)c2C(=O)N1C1CC[C@@H]2[C@H]3CCCN4CCC[C@@H](CN2C1=O)[C@@H]34 (some centres unmarked) [GJD 10]
TNF-α
  TNF-α inhibition rate (%): ≥50%

## C#Cc1cccc2c1C(=O)N(C1CC[C@@H]3[C@H]4CCCN5CCC[C@@H](CN3C1=O)[C@@H]45)C2=O (some centres unmarked) [GJD 11]
TNF-α
  inhibition at 20 µM: < 50%

## CC(C)Nc1cccc2c1C(=O)N(C1CC[C@@H]3[C@H]4CCCN5CCC[C@@H](CN3C1=O)[C@@H]45)C2=O (some centres unmarked) [GJD 12]
TNF-α
  inhibition at 20 µM: > 50%

## CC(=O)Nc1cccc2c1C(=O)N(C1CC[C@@H]3[C@H]4CCCN5CCC[C@@H](CN3C1=O)[C@@H]45)C2=O (some centres unmarked) [GJD 13]
TNF-α
  inhibition at 20 µM: > 50%

## CS(=O)(=O)Nc1cccc2c1C(=O)N(C1CC[C@@H]3[C@H]4CCCN5CCC[C@@H](CN3C1=O)[C@@H]45)C2=O (some centres unmarked) [GJD 14]
TNF-α
  inhibition at 20 µM: > 50%

## COc1ccc2c(c1)C(=O)N(C1CC[C@@H]3[C@H]4CCCN5CCC[C@@H](CN3C1=O)[C@@H]45)C2=O (some centres unmarked) [GJD 16]
Panc-1 cells; Homo sapiens
  pIC50: < 4.00
k562 cells; Homo sapiens
  pIC50: 4.00 to 4.30
Mia-paca2 cells; Homo sapiens, MIA PaCa-2, 48 h
  pIC50: 4.00 to 4.30
A549 cells; Homo sapiens
  pIC50: < 4.00
HpeG-2 cells
  pIC50: > 4.30
MGC-803 cells; Homo sapiens
  pIC50: 4.00 to 4.30
Lovo cells; Homo sapiens
  pIC50: 4.00 to 4.30

## Nc1ccc2c(c1)C(=O)N(C1CC[C@@H]3[C@H]4CCCN5CCC[C@@H](CN3C1=O)[C@@H]45)C2=O (some centres unmarked) [GJD 18]
TNF-α
  inhibition at 20 µM: < 50%

## COc1cc2c(cc1OC)C(=O)N(C1CC[C@@H]3[C@H]4CCCN5CCC[C@@H](CN3C1=O)[C@@H]45)C2=O (some centres unmarked) [GJD 19]
TNF-α
  inhibition at 20 µM: < 50%

## O=C1c2ccccc2C(=O)N1C1=CC[C@@H]2[C@H]3CCCN4CCC[C@@H](CN2C1=O)[C@@H]34 [GJD 22]
TNF-α
  inhibition at 20 µM: > 50%

## Cc1cccc2c1C(=O)N(C1=CC[C@@H]3[C@H]4CCCN5CCC[C@@H](CN3C1=O)[C@@H]45)C2=O [GJD 24]
Panc-1 cells
  pIC50: 4.00 to 4.30
k562 cells
  pIC50: > 4.30
Mia-paca2 cells; 48 h
  pIC50: 4.00 to 4.30
A549 cells
  pIC50: > 4.30
HpeG-2 cells
  pIC50: > 4.30
MGC-803 cells
  pIC50: 4.00 to 4.30
Lovo cells
  pIC50: > 4.30

## O=C1[C@@H](N2C(=O)c3ccccc3C2=O)CC[C@@H]2[C@H]3CCCN4CCC[C@@H](CN12)[C@@H]34 [GJD 25]
Panc-1 cells; Homo sapiens
  pIC50: < 4.00
k562 cells; Homo sapiens
  pIC50: 4.00 to 4.30
Mia-paca2 cells; Homo sapiens, MIA PaCa-2, 48 h
  pIC50: < 4.00
A549 cells; Homo sapiens
  pIC50: 4.00 to 4.30
HpeG-2 cells
  pIC50: 4.00 to 4.30
MGC-803 cells; Homo sapiens
  pIC50: < 4.00
Lovo cells; Homo sapiens
  pIC50: 4.00 to 4.30

## Nc1cccc2c1C(=O)N(C1CC[C@@H]3[C@H]4CCCN5CCC[C@H](CN3C1=O)[C@@H]45)C2=O (some centres unmarked) [GJD 27]
TNF-α
  inhibition at 20 µM: > 50%

Source: patent publication US20210221812A1, “MATRINE a-KETOAMINE COMPOUNDS, PREPARATION METHOD THEREFOR AND USE THEREOF” (SHANGHAI XINGYE PHARMACEUTICAL TECHNOLOGY CO., LTD, priority 2018, published 2021)
